Measurements published in US20100227884A1 (priority 2007, published 2010).

How the values were obtained:
Type in all cases: in vivo
Botrytis cinerea [1] = assay: Test Example 2: curative effect on Botrytis disease of cucumber; conditions: cucumber (Sagami Hanjiro), wettable powder, 200 ppm foliar spray after inoculation, 12° C. for 2 days under high humidity
Experimental: (§1) The area of lesions on the test plants at testing was visually observed, and the control effect was evaluated by comparing the area of lesions on test plants treated with the invented compound with the area of lesions on untreated plants.
Test for showing curative effect on Botrytis disease of cucumber (Botrytis cinerea):
Sand soil was packed in a plastic pot, and seeds of cucumber (variety: Sagami Hanjiro) were sowed therein and grown for 12 days in a greenhouse. A PDA medium containing spores of Botrytis cinerea was placed on the surface of leaves of the cucumber to inoculate the surface of leaves of the cucumber. Then, the wettable powder of each of the invented compounds (1) and (2) and the comparative compound (A) was diluted with water to a concentration of 200 ppm and was sprayed onto the foliage of the cucumber so that a sufficient amount of the compound would be applied to the surface of leaves of the cucumber. After spraying, the plant was air-dried and left at 12° C. for 2 days under high humidity, and then the area of lesions was examined.
As a result, the lesion area on the plant treated with the invented compounds (1) and (2) was respectively less than 11% and less than 15% of the lesion area on the plant of untreated plant. The lesion area on the plant treated with the comparative compound (A) was 98% of the untreated plant.

Botrytis cinerea [2] = assay: Test Example 1: preventive effect on Botrytis disease of cucumber; conditions: cucumber (Sagami Hanjiro), flowable formulation, 200 ppm foliar spray before inoculation, 12° C. for 5 days under high humidity
Experimental: as §1
Test for showing preventive effect on Botrytis disease of cucumber (Botrytis cinerea):
Sand soil was packed in a plastic pot, and seeds of cucumber (variety: Sagami Hanjiro) were sowed therein and grown for 12 days in a greenhouse. Each of the invented compounds (1)-(5) and the comparative compound (A) was formulated into flowable formulation in accordance with Formulation Example 6, and it was diluted with water to a given concentration (200 ppm) and was sprayed onto the foliage of the cucumber so that a sufficient amount of the compound would be applied to the surface of leaves of the cucumber. After spraying, the plant was air-dried and PDA medium containing spores of Botrytis cinerea was placed on the surface of leaves of the cucumber. After the inoculation, the plant was left at 12° C. for 5 days under high humidity, and then the area of lesions was examined. As a result, the lesion area on the plant treated with the invented compounds (1)-(5) was less than 10% of the lesion area on the untreated plant. The lesion area on the plant treated with the comparative compound (A) was 98% of the untreated plant.

Magnaporthe grisea = conditions: rice (Nihonbare), flowable formulation, 500 ppm foliar spray before inoculation, 5 days after inoculation

Compound | lesion area on the treated plant as % of the lesion area on the untreated plant (Botrytis cinerea [1]) | lesion area on the treated plant as % of the lesion area on the untreated plant (Botrytis cinerea [2]) [%] | lesion area on the treated plant as % of the lesion area on the untreated plant (Magnaporthe grisea) [%]
CCOc1cccc(CNC(=O)c2ccc3ncccc3c2)c1F [invented compound (2), N-(3-ethoxy-2-fluorophenyl)methyl-quinoline-6-carboxamide] | less than 15% | – | –
CC(C)CCOc1cccc(CNC(=O)c2ccc3ncccc3c2)c1 [comparative compound (A), N-(3-(3-methylbutoxy)phenyl)methyl-quinoline-6-carboxamide] | 98% | 98 | 98
COc1cccc(CNC(=O)c2ccc3ncccc3c2)c1F [invented compound (1), N-(2-fluoro-3-methoxyphenyl)methyl-quinoline-6-carboxamide] | less than 11% | – | –
